Experiment: xn = mol fraction of the nth substance listed
Conditions: 101 kPa

Question: With `CCCC[n+]1ccccc1.F[B-](F)(F)F` + CCO as the compound, how does the speed of sound (303.15 K, x2 = 0.072) read?
Answer: 1575.2 m/s

Question: What about the speed of sound (303.15 K, x2 = 0.147) of the same compound?
Answer: 1555.4 m/s

Question: What about the speed of sound (303.15 K, x2 = 0.3295) of the same compound?
Answer: 1514.6 m/s

Question: And the speed of sound (303.15 K, x2 = 0.4136)?
Answer: 1488.6 m/s

Question: What about the speed of sound (303.15 K, x2 = 0.5006) of the same compound?
Answer: 1454.7 m/s

Question: And the speed of sound (303.15 K, x2 = 0.7074)?
Answer: 1345.6 m/s

Question: And the speed of sound (303.15 K, x2 = 0.8999)?
Answer: 1199.4 m/s

Question: What about the speed of sound (303.15 K, x2 = 0.948) of the same compound?
Answer: 1163.7 m/s

Question: What about the speed of sound (313.15 K, x2 = 0.147) of the same compound?
Answer: 1532.9 m/s

Question: What about the speed of sound (313.15 K, x2 = 0.2229) of the same compound?
Answer: 1520.8 m/s

Question: What about the speed of sound (313.15 K, x2 = 0.3295) of the same compound?
Answer: 1492.5 m/s

Question: What about the speed of sound (313.15 K, x2 = 0.4136) of the same compound?
Answer: 1466.5 m/s

Question: What about the speed of sound (313.15 K, x2 = 0.5006) of the same compound?
Answer: 1433.1 m/s

Question: And the speed of sound (313.15 K, x2 = 0.7074)?
Answer: 1329.7 m/s

Question: And the speed of sound (313.15 K, x2 = 0.8052)?
Answer: 1256.1 m/s

Question: And the speed of sound (313.15 K, x2 = 0.8999)?
Answer: 1175.8 m/s

Question: What about the speed of sound (313.15 K, x2 = 0.948) of the same compound?
Answer: 1135.3 m/s

Question: And the speed of sound (323.15 K, x2 = 0.072)?
Answer: 1529.8 m/s

Question: What about the speed of sound (323.15 K, x2 = 0.147) of the same compound?
Answer: 1511.8 m/s

Question: What about the speed of sound (323.15 K, x2 = 0.3295) of the same compound?
Answer: 1470.4 m/s

Question: What about the speed of sound (323.15 K, x2 = 0.5006) of the same compound?
Answer: 1409.4 m/s

Question: What about the speed of sound (323.15 K, x2 = 0.5789) of the same compound?
Answer: 1374.8 m/s

Question: What about the speed of sound (323.15 K, x2 = 0.7074) of the same compound?
Answer: 1306.2 m/s

Question: What about the speed of sound (323.15 K, x2 = 0.8052) of the same compound?
Answer: 1233.5 m/s

Question: What about the speed of sound (323.15 K, x2 = 0.948) of the same compound?
Answer: 1106.3 m/s

Question: Which speed of sound (293.15 K, x2 = 0.1574) does the source give for `CCCC[n+]1ccccc1.F[B-](F)(F)F` + CO here?
Answer: 1589.5 m/s

Question: And the speed of sound (293.15 K, x2 = 0.2119)?
Answer: 1580.3 m/s

Question: And the speed of sound (293.15 K, x2 = 0.3113)?
Answer: 1561.6 m/s

Question: And the speed of sound (293.15 K, x2 = 0.3856)?
Answer: 1545.2 m/s

Question: What about the speed of sound (293.15 K, x2 = 0.6109) of the same compound?
Answer: 1473.1 m/s

Question: And the speed of sound (293.15 K, x2 = 0.7044)?
Answer: 1424.8 m/s

Question: And the speed of sound (293.15 K, x2 = 0.8043)?
Answer: 1353.2 m/s

Question: What about the speed of sound (293.15 K, x2 = 0.9023) of the same compound?
Answer: 1256.7 m/s

Question: What about the speed of sound (303.15 K, x2 = 0.1058) of the same compound?
Answer: 1582.7 m/s

Question: And the speed of sound (303.15 K, x2 = 0.2119)?
Answer: 1558.3 m/s

Question: What about the speed of sound (303.15 K, x2 = 0.3856) of the same compound?
Answer: 1522.7 m/s

Question: What about the speed of sound (303.15 K, x2 = 0.5052) of the same compound?
Answer: 1491.6 m/s

Question: What about the speed of sound (303.15 K, x2 = 0.6109) of the same compound?
Answer: 1450.8 m/s

Question: And the speed of sound (303.15 K, x2 = 0.8043)?
Answer: 1330.3 m/s

Question: What about the speed of sound (303.15 K, x2 = 0.9023) of the same compound?
Answer: 1234.7 m/s

Question: What about the speed of sound (313.15 K, x2 = 0.1058) of the same compound?
Answer: 1552.6 m/s

Question: What about the speed of sound (313.15 K, x2 = 0.1574) of the same compound?
Answer: 1544.6 m/s

Question: What about the speed of sound (313.15 K, x2 = 0.2119) of the same compound?
Answer: 1535.7 m/s

Question: What about the speed of sound (313.15 K, x2 = 0.3113) of the same compound?
Answer: 1516.7 m/s

Question: And the speed of sound (313.15 K, x2 = 0.3856)?
Answer: 1500.1 m/s

Question: What about the speed of sound (313.15 K, x2 = 0.6109) of the same compound?
Answer: 1427.1 m/s

Question: What about the speed of sound (313.15 K, x2 = 0.7044) of the same compound?
Answer: 1378.5 m/s

Question: What about the speed of sound (313.15 K, x2 = 0.9512) of the same compound?
Answer: 1140.1 m/s

Question: And the speed of sound (323.15 K, x2 = 0.211)?
Answer: 1512.7 m/s

Question: What about the speed of sound (323.15 K, x2 = 0.3066) of the same compound?
Answer: 1494.7 m/s

Question: What about the speed of sound (323.15 K, x2 = 0.4111) of the same compound?
Answer: 1470.5 m/s

Question: And the speed of sound (323.15 K, x2 = 0.5203)?
Answer: 1440.9 m/s

Question: What about the speed of sound (323.15 K, x2 = 0.703) of the same compound?
Answer: 1363 m/s

Question: And the speed of sound (323.15 K, x2 = 0.8081)?
Answer: 1281.6 m/s

Question: And the speed of sound (323.15 K, x2 = 0.9038)?
Answer: 1172.9 m/s
